Here are results for two compounds from US12358904B2, “Inhibitors of TYK2” (Atomwise Inc., priority 2023, dated 2025).

One series deals with GM-CSF/pSTAT5. The series is described as follows: GM-CSF induced pSTAT5 assay in CellSensor irf1-bla TF-1 cells. It counts as cell-based. As to conditions: Homo sapiens, GM-CSF 1 ng/mL, read-out: Cellular selectivity (GM-CSF induced pSTAT5).
The nature of series [1]: Brain exposure pharmacokinetic study in rats. To be noted: male Sprague Dawley rats, oral gavage 10 mg/kg, plasma, CSF. It counts as in vivo, rat. As for the experimental part:
The brain exposure of exemplary compounds, e.g., 1, 2, and 4 were evaluated in male Sprague Dawley rats after oral gavage administration at 10 mg/kg. The formulation was 5% DMSO+10% PEG400 in saline. Rats were fasted overnight with food returned 4 hours post-dose. CSF was collected by direct needle puncture into the cisterna magna.
(§1) For both rat and mouse studies, brain tissue was washed with 3 volumes of saline prior to homogenization. Brain tissue was homogenized with 3 volumes (v/w) of phosphate buffered saline. Plasma, brain homogenate, and CSF samples (rat only) were analyzed by LC-MS/MS and the concentration of test compound at each time point was determined by linear regression.
(§2) Pharmacokinetic parameters were calculated from the plasma, brain, and CSF concentrations by non-compartmental modeling using WinNonlin 8.2.

The next series concerns the target T1, TYK2-JH2 (Homo sapiens, UniProt P29597).
T1 construct: TYK JH2 enzyme mix (ChemPartnec CP20210818A-BV); purchased ChemPartner CP20210818A-BV
The series is described as follows: TYK2-JH2 HTRF binding assay (ligand efficiency). To be noted: calculated from IC50 of the TYK-JH2 binding assay (Equation 1). The essentials: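 His-tagged TYK2 JH2 (0.5 nM) preincubated 10 min at RT with compound (0.1–0.000005 μM) in 20 mM HEPES pH 7.5, 10 mM MgCl2, 0.01% Triton X-100, 1 mM DTT; then 35 nM tracer plus anti-6HIS Tb cryptate, 60 min RT. TR-FRET read (Ex340/Em495/520); IC50 converted to ligand efficiency.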

In a further series the test system is IL-6/pSTAT3. The series is described as follows: IL-6 induced pSTAT3 assay in TF-1 cells. Format: cell-based. To be noted: Homo sapiens, read-out: Cellular selectivity (IL-6/pSTAT3).
A further series concerns IL-12/pSTAT4. The series is described as follows: IL-12 induced pSTAT4 assay in NK-92 cells. Format: cell-based. As to conditions: Homo sapiens, NK92, IL-12 stimulation, read-out: Cellular potency (IL-12/pSTAT4). Summed up: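 Overnight-starved NK-92 cells (20K/well) pre-incubated with compounds (1000 to 0.05 nM final) 30 min at 37 °C, then stimulated with IL-12 (10 ng/ml) for 30 min at 37 °C. Lysates assayed for pSTAT4 (Tyr693) by MSD electrochemiluminescence.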

The nature of series [2]: Brain exposure pharmacokinetic study in mice. It counts as in vivo, mouse. As to conditions: male C57BL/6 mice, oral gavage 5 mg/kg, plasma. As to the method: The brain exposure of 18 was evaluated in male C57BL/6 mice after oral gavage administration at 5 mg/kg. The formulation was 10% DMSO+40% PEG400 in saline. Mice were provided free access to food and water without fasting. Terminal sample collection of plasma and brain tissue were collected at […], 0.25, 0.5, 1, 2, and 4 hours post-dose with n=3 at each timepoint.
as §1, §2

pIC50: −log10 of the molar value.

T1 sequence (P29597 589-875 limits assumed): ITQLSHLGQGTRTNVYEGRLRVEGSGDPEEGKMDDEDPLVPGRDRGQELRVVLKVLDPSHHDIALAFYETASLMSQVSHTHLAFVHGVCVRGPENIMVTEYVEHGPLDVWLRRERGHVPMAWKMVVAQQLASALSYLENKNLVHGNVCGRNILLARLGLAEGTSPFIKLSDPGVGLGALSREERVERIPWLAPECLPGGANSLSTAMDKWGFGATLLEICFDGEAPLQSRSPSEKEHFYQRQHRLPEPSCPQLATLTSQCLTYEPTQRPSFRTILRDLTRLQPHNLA

Consider `C[C@@H](c1ccc(Nc2cc(Nc3ncccc3S(C)(=O)=O)ncn2)nc1)N(C)C` [Compound 4, (S)—N^4-(5-(1-(dimethylamino)ethyl)79yridine-2-yl)-N^6-(3-(methylsulfonyl) 79yridine-2-yl) pyrimidine-4,6-diamine], for which the figures for the pIC50 in the series on GM-CSF/pSTAT5, in the series on IL-6/pSTAT3 and in the series on IL-12/pSTAT4 were below 5.00, 5.00 to 5.40 and above 7.00, respectively. The “Brain Kpu, u” value in series [1] is “††† (††† >0.2u)”. For the same compound, at TYK2-JH2, the “Ligand Efficiency” value was “††† (†††: >0.39)”.
`Cc1cccc(Nc2cc(Nc3ncccc3S(C)(=O)=O)ncn2)n1` [Compound 18, N^4-(6-methylpyridin-2-yl)-N^6-(3-(methylsulfonyl)99yridine-2-yl) pyrimidine-4,6-diamine]: the figures for the pIC50 in the series with GM-CSF/pSTAT5, in the series on IL-6/pSTAT3 and in the series with IL-12/pSTAT4 were below 5.00, above 5.40 and above 7.00, respectively. For the same compound, at TYK2-JH2, the “Ligand Efficiency” value is recorded as “††† (†††: >0.39)”. For the same compound, the “Brain Kpu, u” value in series [2] was “††† (††† >0.2u)”.
